# Reference: US20260137697A1, “THIAZOLO[5,4-D]PYRIMIDINE COMPOUNDS, COMPOSITIONS COMPRISING THEM AND USES THEREOF” (University de Montreal, priority 2022, published 2026)
# Like-named read-outs stand apart in the source and are kept apart here.
# What was measured:
# Format in all cases: cell-based, human
# [1] = test system: pERK, NCI-H2122 cells; assay: Phospho-ERK inhibition, AlphaLISA p-ERK 1/2, NCI-H2122; conditions: Table D-2; for IC50: NCI-H2122 (KRAS-G12C); for pERK value in parentheses, % inhibition (Ymin): NCI-H2122, lowest point of IC50 curve
# Description: (§1) All cancer cell lines (A375, A101D, A2058, RKO, HT29 SK-MEL 30, IPC298, HepG2, HCT-116, Lovo, SW620, SW480, NCI-H358, NCI-H2122, Calu-6, NCIH2087, NCIH1755, NCIH1666 and Mewo) were obtained from ATCC and cultured in RPM1-1640 medium (Gibco) supplemented with 5% heat inactivated fetal bovine serum (FBS, Wisent) at 37° C. under 5% CO2. Cells were maintained in T175 flasks (Greiner). They were passaged by removing the culture medium, washing once in 10 mL of room temperature Phosphate Buffered Saline (PBS; Wisent) and incubating at 37° C. with 2 mL of 0.05% Trypsin (Thermo-Fisher). Trypsin was then inactivated by adding complete growth medium and the cells were then replated in a T175 culture dish at the appropriate dilution. All cell lines were routinely tested for mycoplasma contamination. Tissue type and mutational status of each cell line can be found in Table B.
# (§2) (c) Measurement of Phospho-ERK Inhibition in Cultivated Human Cancer Cell Lines by the AlphaLISA® SureFire® Ultra™ p-ERK 1/2 (Thr2O2/Tyr204)
# (§3) AlphaLISA® SureFire® Ultra™ p-ERK 1/2 (Thr202/Tyr204) analysis was conducted on cells plated in 100 μL of complete RPMI-1640 growth medium in 96-well flat-bottomed transparent dishes (Costar) at a density indicated in Table C. Cells were maintained overnight at 37° C. under 5% CO2 before treatment with compounds' dilution series for one hour. The cell density in cells/cm^2 corresponds to cell number divided by the area of one well of a 96-well plate (0.143 cm^2).
# (§4) In a dilution series 100 μL/well of test substance dilution prepared in complete RPMI-1640 growth media was added to the cells. The dilution series is selected so that ten concentrations cover a range from 10 μM to 0.33 nM. If necessary, the initial concentration of 10 μM is increased to 100 μM or lowered to 1 μM (as in the case of A375 and H1666 cells, which are generally more sensitive to the compounds) and further dilution is carried out accordingly. The final concentration of DMSO in the assay is set at 0.5%.
# (§5) After treatment, media was removed, and cells were lysed in 50 μL of 1× AlphaScreen Ultra Lysis Buffer (Perkin Elmer). The AlphaLISA® SureFire® Ultra™ p-ERK 1/2 (Thr202/Tyr204) (PerkinElmer) reactions were performed with 5 μL of cell lysate according to the manufacturer's specifications in 384-well proxyplates (Perkin Elmer) followed by overnight incubation of the reactions at room temperature in a humidified chamber. After completion of the reactions, the signals were recorded on an EnVision plate reader (Perkin Elmer) using built in AlphaLISA® settings.
# (§6) The effect of each compound dilution on the pERK signal was expressed in % inhibition and calculated as follows. An internal 100% inhibition control (1 μM trametinib, cat. No. HY-10999; MedChem Express; CAS No. 871700-17-3) was included in each plate and used as a measure of pERK background. First, the value obtained for trametinib was subtracted from each data point. The average of DMSO (vehicle) controls (set as 0% inhibition) was established and used to calculate % inhibition:
# (§7) The ability of each compound to inhibit pERK signal was expressed as an IC50 value obtained by plotting the inhibition values for each data point of a dilution series and fitting the obtained curves using a log(agonist) versus response—variable slope (four parameters) function using GraphPadPrism (V7.0) or Dotmatics Screening Ultra platform.
# (§8) When present, paradoxical pERK induction is inferred from the negative % inhibition values observed in the pERK IC50 curves of a compound.
# [2] = test system: pERK, SW620 cells; assay: Phospho-ERK inhibition, AlphaLISA p-ERK 1/2, SW620; conditions: Table D-2; for IC50: SW620 (KRAS-G12V); for pERK value in parentheses, % inhibition (Ymin): SW620, lowest point of IC50 curve
# Description: as §1, §2, §3, §4, §5, §6, §7, §8
# [3] = test system: NCIH1755 cells; assay: Proliferation inhibition, CellTiter-Glo, NCIH1755; conditions: Table D-2, NCIH1755 (BRAF G469A), 3 days, read-out: Prolif. (proliferation EC50)
# Description: as §1
# (§9) CellTiter-Glo® viability analysis was conducted on cells plated in 100 μL of complete RPMI-1640 growth medium in 96-well flat-bottomed white opaque plates (Greiner or Croning) at a density indicated in Table E (for each CCL, number of cells plated per well of a 96-well plate to perform the CellTiter-Glo® cell viability assay). The cell density in cells/cm^2 would correspond to cell number divided by the area of one well of a 96-well plate (0.32 cm^2). […]
# (§10) After 3 days of incubation, the growth media were removed by aspiration and 60 μL of diluted CellTiter-Glo® reagent (10 μL CellTiter-Glo® reagent+50 μL of PBS) was added to each well. […] Luminescence signals were then acquired on a Synergy Neo2 plate reader (Biotek).
# (§11) The effect of each compound dilution on the proliferation of cancer cell lines was expressed in % inhibition and calculated as follows. […]
# as §7, with “proliferation” for “pERK signal”, “a EC50” for “an IC50”, “effect” for “inhibition”
# [4] = test system: pERK, SW480 cells; assay: Phospho-ERK inhibition, AlphaLISA p-ERK 1/2, SW480; conditions: Table D-2; for IC50: SW480 (KRAS G12D); for pERK value in parentheses, % inhibition (Ymin): SW480, lowest point of IC50 curve
# Description: as §1, §2, §3, §4, §5, §6, §7, §8
# [5] = test system: RKO cells; assay: Proliferation inhibition, CellTiter-Glo, RKO; conditions: Table D-1, RKO (BRAF V600E), 3 days, read-out: Prolif. (proliferation EC50)
# Description: as §1, §9, §10, §11
# as §7, with “proliferation” for “pERK signal”, “a EC50” for “an IC50”, “effect” for “inhibition”
Structure (SMILES),IC50 [1],"pERK value in parentheses, % inhibition (Ymin) [1]",IC50 [2],"pERK value in parentheses, % inhibition (Ymin) [2]",EC50 [3],IC50 [4],"pERK value in parentheses, % inhibition (Ymin) [4]",EC50 [5],IC50 ([1]; Homo sapiens),"IC50 ([2]; Homo sapiens, SW-620)","EC50 ([3]; Homo sapiens, NCI-H1755, 72 h)",IC50 ([4]; Homo sapiens),"EC50 ([5]; Homo sapiens, 72 h)"
N#CC1(c2cccc3c2ncn3-c2nc3c(Nc4c(F)ccc(NS(=O)(=O)c5cccc(Cl)c5Cl)c4F)ncnc3s2)CC1 [Example 122],30 to 300 nM,(27) %,30 to 300 nM,(−6) %,< 300 nM,30 to 300 nM,(5) %,< 300 nM,–,–,–,–,–
"Cc1ccc2c(Nc3cccc(Cl)c3F)nccc2c1NC(=O)c1csc2c(N)ncnc12 [Belvarafenib, reference compound]",–,(−9) %,–,(−151) %,–,–,(−100) %,–,30 to 300 nM,30 to 300 nM,> 3000 nM,30 to 300 nM,< 300 nM
Cc1c(F)cccc1S(=O)(=O)Nc1ccc(F)c(Nc2ncnc3sc(-n4cc(C(=O)N5C6CCC5CN(C)C6)c5ccccc54)nc23)c1F [Example 44],30 to 300 nM,(−11) %,30 to 300 nM,(3) %,< 300 nM,30 to 300 nM,(−4) %,< 300 nM,–,–,–,–,–
